Laboratory results reported in patent US12655116B2, “Substituted isophthalic acid diamides” (Bayer Aktiengesellschaft, priority 2020, dated 2026).

Assays:
DIGSA [1] = experiment: Pre-emergence herbicidal action against DIGSA; format: in vivo, Digitaria sanguinalis
In short: (§1)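 Greenhouse pots of sandy loam held seeds covered with soil, onto which the compound was applied before emergence. An aqueous suspension or emulsion of WP or EC was used at 600 to 800 l/ha with 0.2% wetting agent. Percent damage was judged visually at 3 weeks.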

ECHCG [2] = experiment: Post-emergence herbicidal action against ECHCG; format: in vivo, Echinochloa crus-galli
In short: (§2)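 A WP or EC formulation diluted in water with 0.2% wetting agent was sprayed at 600 to 800 l/ha onto one-leaf-stage plants grown in sandy loam. About 3 weeks later, action was rated visually in percent, 100% being dead plants.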

AMARE [3] = experiment: Pre-emergence herbicidal action against AMARE; format: in vivo, Amaranthus retroflexus
In short: as §1

VIOTR [4] = experiment: Pre-emergence herbicidal action against VIOTR; format: in vivo, Viola tricolor
In short: as §1

VERPE [5] = experiment: Pre-emergence herbicidal action against VERPE; format: in vivo, Veronica persica
In short: as §1

VERPE [6] = experiment: Post-emergence herbicidal action against VERPE; format: in vivo, Veronica persica; settings: 20 g/ha
In short: as §2

ALOMY [7] = experiment: Pre-emergence herbicidal action against ALOMY; format: in vivo, Alopecurus myosuroides; settings: pre-emergence
In short: as §1

PHBPU [8] = experiment: Pre-emergence herbicidal action against PHBPU; format: in vivo, Pharbitis purpurea; settings: dosage 80 g/ha
Description: Seeds of monocotyledonous and dicotyledonous weed plants and crop plants are laid out in sandy loam soil in wood-fiber pots and covered with soil. The compounds of the invention, formulated in the form of wettable powders (WP) or as emulsion concentrates (EC), are then applied to the surface of the covering soil in the form of an aqueous suspension or emulsion at a water application rate equivalent to 600 to 800 l/ha, with addition of 0.2% wetting agent. After the treatment, the pots are placed in a greenhouse and kept under good growth conditions for the trial plants. The damage to the test plants is scored visually after a test period of 3 weeks by comparison with untreated controls (herbicidal activity in percent (%): 100% activity=the plants have died, 0% activity=like control plants). […] The tables below illustrate, in an illustrative manner, the post-emergence herbicidal action of the compounds of the invention, the herbicidal activity being stated in percent.

ECHCG [9] = experiment: Pre-emergence herbicidal action against ECHCG; format: in vivo, Echinochloa crus-galli
In short: as §1

SETVI [10] = experiment: Pre-emergence herbicidal action against SETVI; format: in vivo, Setaria viridis; settings: dosage 80 g/ha
In short: as §1

ABUTH [11] = experiment: Post-emergence herbicidal action against ABUTH; format: in vivo, Abutilon theophrasti; settings: visual assessment about 3 weeks after treatment vs untreated controls
In short: as §2

MATIN [12] = experiment: Post-emergence herbicidal action against MATIN; format: in vivo, Matricaria inodora
In short: as §2

MATIN [13] = experiment: Pre-emergence herbicidal action against MATIN; format: in vivo, Matricaria inodora
In short: as §1

AVEFA = experiment: Pre-emergence herbicidal action against AVEFA; format: in vivo, Avena fatua; settings: 80 g/ha, pre-emergence
In short: as §1

VIOTR [14] = experiment: Post-emergence herbicidal action against VIOTR; format: in vivo, Viola tricolor; settings: 20 g/ha
In short: as §2

ABUTH [15] = experiment: Pre-emergence herbicidal action against ABUTH; format: in vivo, Abutilon theophrasti
In short: as §1

DIGSA [16] = experiment: Post-emergence herbicidal action against DIGSA; format: in vivo, Digitaria sanguinalis; settings: for Post-emergence action against DIGSA in %: 5 g/ha; for Post-emergence action against DIGSA: 20 g/ha
In short: as §2

PHBPU [17] = experiment: Post-emergence herbicidal action against PHBPU; format: in vivo, Pharbitis purpurea; settings: dosage 20 g/ha
In short: as §2

ALOMY [18] = experiment: Post-emergence herbicidal action against ALOMY; format: in vivo, Alopecurus myosuroides; settings: visual assessment about 3 weeks after treatment vs untreated controls
In short: as §2

SETVI [19] = experiment: Post-emergence herbicidal action against SETVI; format: in vivo, Setaria viridis
In short: as §2

AMARE [20] = experiment: Post-emergence herbicidal action against AMARE; format: in vivo, Amaranthus retroflexus; settings: 20 g/ha, visual assessment about 3 weeks after treatment, 100% = plants have died, 0% = like control plants
In short: as §2

[21] = 20 g/ha, scored visually after 3 weeks vs untreated controls, 100% = plants have died, 0% = like control plants
[22] = 80 g/ha, scored visually after 3 weeks vs untreated controls (100% = plants have died, 0% = like control plants)
[23] = dosage 20 g/ha, scored visually after 3 weeks vs untreated controls, 100% = plants have died, 0% = like control plants

SMILES | Pre-emergence action against DIGSA in % (DIGSA [1]; dosage 80 g/ha) [%] | Post-emergence action against ECHCG in % (ECHCG [2]; dosage 20 g/ha) [%] | Pre-emergence action against AMARE in % (AMARE [3]; [21]) [%] | Pre-emergence action against AMARE in % (AMARE [3]; [22]) [%] | Pre-emergence action against VIOTR in % (VIOTR [4]; dosage 80 g/ha) [%] | Pre-emergence action against VERPE in % (VERPE [5]; dosage 80 g/ha) [%] | Pre-emergence action against ALOMY (herbicidal activity) (ALOMY [7]; [22]) [%] | Pre-emergence action against PHBPU in % (PHBPU [8]) [%] | Pre-emergence action against ECHCG in % (ECHCG [9]; 80 g/ha) [%] | Pre-emergence action against SETVI in % (SETVI [10]) [%] | Pre-emergence action against DIGSA in % (DIGSA [1]; dosage 20 g/ha) [%] | Post-emergence action against MATIN in % (MATIN [12]; dosage 5 g/ha) [%] | Post-emergence action against MATIN in % (MATIN [12]; dosage 20 g/ha) [%] | Pre-emergence action against MATIN in % (MATIN [13]; dosage 20 g/ha) [%] | Pre-emergence action against MATIN in % (MATIN [13]; dosage 80 g/ha) [%] | Pre-emergence action against AVEFA in % (AVEFA) [%] | Pre-emergence action against ABUTH (herbicidal activity) (ABUTH [15]; [22]) [%] | Pre-emergence action against ABUTH (herbicidal activity in percent) (ABUTH [15]; [23]) [%] | Post-emergence action against PHBPU in % (PHBPU [17]) [%] | Post-emergence action against ALOMY in % (ALOMY [18]; dosage 20 g/ha) [%] | also measured
CCn1nnnc1NC(=O)c1ccc(C(F)(F)F)c(C(=O)NCC2CCCO2)c1C (stereo not drawn) [Example 2-37] | 100 | 80 | 90 | 100 | 100 | 80 | 90 | 80 | 80 | 100 |  |  |  |  |  |  |  |  |  |  | Pre-emergence action against VERPE in % (VERPE [5]; dosage 20 g/ha): 80%; Post-emergence action against VERPE in % (VERPE [6]): 80%
Cn1nnnc1NC(=O)c1ccc(C(F)(F)F)c(C(=O)NCC2CC2)c1Br [Example 1-210] | 100 | 80 | 100 | 100 | 100 | 80 | 80 | 80 | 100 | 100 | 100 | 80 | 90 | 100 | 100 | 90 | 100 | 100 | 100 | 100 | Post-emergence action against ABUTH in % (ABUTH [11]; dosage 5 g/ha): 80%; Post-emergence action against ABUTH in % (ABUTH [11]; dosage 20 g/ha): 90%; Pre-emergence action against VIOTR in % (VIOTR [4]; dosage 20 g/ha): 100%; Post-emergence action against VIOTR in % (VIOTR [14]): 90%; Post-emergence action against DIGSA in % (DIGSA [16]): 80%; Post-emergence action against DIGSA (DIGSA [16]): 90%; Pre-emergence action against ECHCG in % (ECHCG [9]; 20 g/ha): 80%; Post-emergence action against ALOMY in % (ALOMY [18]; dosage 5 g/ha): 80%; Post-emergence action against SETVI in % (SETVI [19]; dosage 5 g/ha): 80%; Post-emergence action against SETVI in % (SETVI [19]; dosage 20 g/ha): 90%
CCn1nnnc1NC(=O)c1ccc(C(F)F)c(C(=O)NCC2CC2)c1Br [Example 2-228] | 100 | 90 | 100 | 100 | 100 | 90 | 80 | 100 | 100 | 90 | 100 |  | 80 | 90 | 100 | 80 | 100 | 100 | 80 | 80 | Post-emergence action against ECHCG in % (ECHCG [2]; dosage 5 g/ha): 80%; Pre-emergence action against VIOTR in % (VIOTR [4]; dosage 20 g/ha): 100%; Post-emergence action against VIOTR in % (VIOTR [14]): 80%; Post-emergence action against DIGSA in % (DIGSA [16]): 80%; Post-emergence action against DIGSA (DIGSA [16]): 80%; Post-emergence action at 20 g/ha against AMARE in % (AMARE [20]): 90%
Cc1nnc(NC(=O)c2ccc(C(F)(F)F)c(C(=O)NCC(F)(F)F)c2Cl)o1 [Example 6-120] |  |  |  |  |  |  |  |  |  |  |  |  |  |  |  |  |  |  |  |  | pest or weed control at 80 g/ha (DIGSA [1]; Digitaria sanguinalis, 504 h, dosage 80 g/ha): 90%; pest or weed control at 20 g/ha (ECHCG [2]; Echinochloa crus-galli, 504 h, dosage 20 g/ha): 90%; pest or weed control at 20 g/ha (AMARE [3]; Amaranthus retroflexus, 504 h, 20 g/ha, scored visually after 3 weeks vs untreated controls, 100% = plants have died, 0% = like control plants): 100%; pest or weed control at 80 g/ha (AMARE [3]; Amaranthus retroflexus, 504 h, 80 g/ha, scored visually after 3 weeks vs untreated controls, 100% = plants have died, 0% = like control plants): 100%; pest or weed control at 80 g/ha (VIOTR [4]; Viola tricolor, 504 h, dosage 80 g/ha): 90%; pest or weed control at 20 g/ha (MATIN [13]; Tripleurospermum inodorum, 504 h, dosage 20 g/ha): 90%; pest or weed control at 80 g/ha (MATIN [13]; Tripleurospermum inodorum, 504 h, dosage 80 g/ha): 90%; pest or weed control at 80 g/ha (AVEFA; Avena fatua, 504 h): 90%; pest or weed control at 80 g/ha (ABUTH [15]; Abutilon theophrasti, 504 h, 80 g/ha, scored visually after 3 weeks vs untreated controls (100% = plants have died, 0% = like control plants)): 100%; pest or weed control at 20 g/ha (ABUTH [15]; Abutilon theophrasti, 504 h, dosage 20 g/ha, scored visually after 3 weeks vs untreated controls, 100% = plants have died, 0% = like control plants, read-out: Pre-emergence action against ABUTH (herbicidal activity in percent)): 80%; pest or weed control at 20 g/ha (VERPE [6]; Veronica persica, 504 h): 80%; pest or weed control at 80 g/ha (ALOMY [7]; Alopecurus myosuroides, 504 h, 80 g/ha, scored visually after 3 weeks vs untreated controls (100% = plants have died, 0% = like control plants)): 90%; pest or weed control at 20 g/ha (ALOMY [7]; Alopecurus myosuroides, 504 h, 20 g/ha, scored visually after 3 weeks, 100% = plants have died, 0% = like control plants): 80%; pest or weed control at 80 g/ha (PHBPU [8]; Ipomoea purpurea, 504 h): 80%; pest or weed control at 20 g/ha (PHBPU [17]; Ipomoea purpurea, 504 h): 90%; pest or weed control at 80 g/ha (ECHCG [9]; Echinochloa crus-galli, 504 h, 80 g/ha): 100%; pest or weed control at 20 g/ha (AMARE [20]; Amaranthus retroflexus, 504 h): 90%; pest or weed control at 80 g/ha (SETVI [10]; Setaria viridis, 504 h): 100%
CCn1nnnc1NC(=O)c1ccc(Br)c(C(=O)NCC(F)(F)F)c1Cl [Example 2-181] | 100 | 90 | 100 | 100 | 80 | 100 | 80 | 80 | 100 | 100 |  | 80 | 90 | 90 | 100 | 90 | 100 | 100 | 90 | 90 | Post-emergence action against SETVI in % (SETVI [19]; dosage 20 g/ha): 90%
